According to patent USRE48461E1, “Modulation of androgen receptor expression” (Ionis Pharmaceuticals, Inc., priority 2012, dated 2021):
Oligonucleotides are written 5' to 3', each unit as a sugar letter and its base; * is a phosphorothioate linkage, no mark a phosphodiester; rarer units and linkages stand in square brackets, end groups in braces. Plain capitals give the bases only. e = 2'-O-(2-methoxyethyl) (MOE); k = constrained ethyl (cEt); [5mC] = 5-methylcytosine; d = 2'-deoxy (DNA)

Legend:
AR mRNA [1] = experiment: Antisense inhibition of human AR in HuVEC cells, single concentration (electroporation, qRT-PCR RTS3559); type: cell-based
Method in brief: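 AR mRNA levels were measured with human primer-probe set RTS3559 and adjusted for total RNA (RIBOGREEN). Cells were HuVEC, with each antisense oligonucleotide delivered by electroporation at one concentration.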

AR mRNA [2] = experiment: Dose-dependent antisense inhibition of human AR in HuVEC cells (electroporation, qRT-PCR RTS3559, IC50); type: cell-based; conditions: HuVEC
Method in brief: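 HuVEC cells dosed with antisense oligonucleotides by electroporation and treated approximately 16 hours. AR mRNA quantified by real-time qPCR with primer probe set RTS3559 and normalised to total RNA by RIBOGREEN; IC50 from dose-response.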

[3] = Table 25, 1,000 nM oligonucleotide, electroporation, approximately 24 hours, relative to untreated control
[4] = Table 36, electroporation, approximately 16 hours
[5] = Table 20, 500 nM oligonucleotide, electroporation, approximately 24 hours, relative to untreated control
[6] = Table 33, electroporation, approximately 16 hours
[7] = Table 31, electroporation, approximately 16 hours
[8] = Table 19, 500 nM oligonucleotide, electroporation, approximately 24 hours, relative to untreated control
[9] = Table 32, electroporation, approximately 16 hours
[10] = Table 35, electroporation, approximately 16 hours
[11] = Table 22, 500 nM oligonucleotide, electroporation, approximately 24 hours, relative to untreated control
[12] = Table 34, electroporation, approximately 16 hours
[13] = Table 30, electroporation, approximately 16 hours

584245 (kA*kG*kG*dT*dT*dA*dG*dG*dG*dA*dG*dT*dA*kG*kG*k[5mC]; antisense) [compound 584245]
% inhibition (AR mRNA [1]; [3]): 70%
percent inhibition of AR, 46.9 nM (AR mRNA [2]; [4]): 4%
percent inhibition of AR, 187.5 nM (AR mRNA [2]; [4]): 33%
percent inhibition of AR, 750.0 nM (AR mRNA [2]; [4]): 69%
percent inhibition of AR, 3000.0 nM (AR mRNA [2]; [4]): 90%
IC50 (AR mRNA [2]; [4]): 320 nM

583892 (k[5mC]*kA*kG*d[5mC]*d[5mC]*dT*dA*dG*dG*d[5mC]*dT*d[5mC]*dT*k[5mC]*kG*k[5mC]; antisense) [compound 583892]
% inhibition (AR mRNA [1]; [5]): 35%
percent inhibition of AR, 46.9 nM (AR mRNA [2]; [6]): 22%
percent inhibition of AR, 187.5 nM (AR mRNA [2]; [6]): 38%
percent inhibition of AR, 750.0 nM (AR mRNA [2]; [6]): 68%
percent inhibition of AR, 3000.0 nM (AR mRNA [2]; [6]): 83%
IC50 (AR mRNA [2]; [6]): 270 nM

583746 (antisense kT*kG*k[5mC]*dG*d[5mC]*dT*d[5mC]*dG*d[5mC]*dG*dG*d[5mC]*d[5mC]*kT*k[5mC]*kT) [compound 583746]
% inhibition (AR mRNA [1]; 500 nM ASO, ~24 h, Table 18): 32%
percent inhibition of AR, 46.9 nM (AR mRNA [2]; [7]): 24%
percent inhibition of AR, 187.5 nM (AR mRNA [2]; [7]): 44%
percent inhibition of AR, 750.0 nM (AR mRNA [2]; [7]): 65%
percent inhibition of AR, 3000.0 nM (AR mRNA [2]; [7]): 67%
IC50 (AR mRNA [2]; [7]): 350 nM

583797 (antisense kT*k[5mC]*kG*dG*dA*dT*dA*d[5mC]*dT*dG*d[5mC]*dT*dT*k[5mC]*k[5mC]*kT) [compound 583797]
% inhibition (AR mRNA [1]; [8]): 35%
percent inhibition of AR, 46.9 nM (AR mRNA [2]; [9]): 21%
percent inhibition of AR, 187.5 nM (AR mRNA [2]; [9]): 50%
percent inhibition of AR, 750.0 nM (AR mRNA [2]; [9]): 74%
percent inhibition of AR, 3000.0 nM (AR mRNA [2]; [9]): 82%
IC50 (AR mRNA [2]; [9]): 220 nM

584263 (kT*kA*kG*dG*dG*dT*dT*dT*dG*dG*dT*d[5mC]*dA*kG*kA*kA; antisense) [compound 584263]
% inhibition (AR mRNA [1]; [3]): 56%
percent inhibition of AR, 46.9 nM (AR mRNA [2]; [4]): 9%
percent inhibition of AR, 187.5 nM (AR mRNA [2]; [4]): 24%
percent inhibition of AR, 750.0 nM (AR mRNA [2]; [4]): 67%
percent inhibition of AR, 3000.0 nM (AR mRNA [2]; [4]): 90%
IC50 (AR mRNA [2]; [4]): 340 nM

584148 (k[5mC]*kA*kT*dA*dT*dT*dA*dT*dT*dG*dT*dG*d[5mC]*kT*kG*k[5mC]; antisense) [compound 584148]
% inhibition (AR mRNA [1]; Table 24, 1,000 nM oligonucleotide, electroporation, approximately 24 hours, relative to untreated control): 85%
percent inhibition of AR, 46.9 nM (AR mRNA [2]; [10]): 16%
percent inhibition of AR, 187.5 nM (AR mRNA [2]; [10]): 48%
percent inhibition of AR, 750.0 nM (AR mRNA [2]; [10]): 79%
percent inhibition of AR, 3000.0 nM (AR mRNA [2]; [10]): 95%
IC50 (AR mRNA [2]; [10]): 200 nM

583999 (kA*k[5mC]*k[5mC]*dA*dT*dG*d[5mC]*d[5mC]*dG*d[5mC]*d[5mC]*dA*dG*kG*kG*kT; antisense) [compound 583999]
% inhibition (AR mRNA [1]; [11]): 29%
percent inhibition of AR, 46.9 nM (AR mRNA [2]; [12]): 13%
percent inhibition of AR, 187.5 nM (AR mRNA [2]; [12]): 12%
percent inhibition of AR, 750.0 nM (AR mRNA [2]; [12]): 30%
percent inhibition of AR, 3000.0 nM (AR mRNA [2]; [12]): 64%
IC50 (AR mRNA [2]; [12]): 1530 nM

583700 (antisense kG*kA*kA*dG*dA*dG*dT*dT*d[5mC]*dA*dA*d[5mC]*dA*kG*kG*k[5mC]) [compound 583700]
% inhibition (AR mRNA [1]; 500 nM ASO, ~24 h, Table 18): 36%
percent inhibition of AR, 46.9 nM (AR mRNA [2]; [7]): 14%
percent inhibition of AR, 187.5 nM (AR mRNA [2]; [7]): 34%
percent inhibition of AR, 750.0 nM (AR mRNA [2]; [7]): 57%
percent inhibition of AR, 3000.0 nM (AR mRNA [2]; [7]): 71%
IC50 (AR mRNA [2]; [7]): 550 nM

584044 (k[5mC]*k[5mC]*k[5mC]*dT*dT*d[5mC]*dA*dG*d[5mC]*dG*dG*d[5mC]*dT*k[5mC]*kT*kT; antisense) [compound 584044]
% inhibition (AR mRNA [1]; [11]): 29%
percent inhibition of AR, 46.9 nM (AR mRNA [2]; [12]): 23%
percent inhibition of AR, 187.5 nM (AR mRNA [2]; [12]): 30%
percent inhibition of AR, 750.0 nM (AR mRNA [2]; [12]): 51%
percent inhibition of AR, 3000.0 nM (AR mRNA [2]; [12]): 78%
IC50 (AR mRNA [2]; [12]): 440 nM

549432 (kG*kA*kG*dG*dA*dT*d[5mC]*dA*dT*d[5mC]*dA*d[5mC]*dA*kG*kA*kT) [compound 549432]
% inhibition (AR mRNA [1]; 500 nM ASO, electroporation, ~24 h, Table 2): 90%
percent inhibition of AR (AR mRNA [2]; 55.6 nM, ~16 h, Table 4): 15%
percent inhibition of AR (AR mRNA [2]; 166.7 nM, ~16 h, Table 4): 46%
percent inhibition of AR (AR mRNA [2]; 500.0 nM, ~16 h, Table 4): 80%
percent inhibition of AR (AR mRNA [2]; 1500.0 nM, ~16 h, Table 4): 92%
IC50 (AR mRNA [2]; ~16 h, Table 4): 179 nM

583843 (kG*kT*kA*d[5mC]*dA*dT*dG*d[5mC]*dA*dA*dT*d[5mC]*d[5mC]*k[5mC]*k[5mC]*k[5mC]; antisense) [compound 583843]
% inhibition (AR mRNA [1]; [5]): 35%
percent inhibition of AR, 46.9 nM (AR mRNA [2]; [6]): 22%
percent inhibition of AR, 187.5 nM (AR mRNA [2]; [6]): 40%
percent inhibition of AR, 750.0 nM (AR mRNA [2]; [6]): 67%
percent inhibition of AR, 3000.0 nM (AR mRNA [2]; [6]): 85%
IC50 (AR mRNA [2]; [6]): 300 nM

569222 (antisense eT*eT*kG*kA*kT*dT*dT*dA*dA*dT*dG*dG*dT*kT*kG*k[5mC]) [compound 569222]
% inhibition (AR mRNA [1]; 250 nM ASO, ~24 h, Table 7): 74%
percent inhibition of AR (AR mRNA [2]; 31.25 nM, ~16 h, Table 8): 36%
percent inhibition of AR (AR mRNA [2]; 62.5 nM, ~16 h, Table 8): 48%
percent inhibition of AR (AR mRNA [2]; 125.0 nM, ~16 h, Table 8): 67%
percent inhibition of AR (AR mRNA [2]; 500.0 nM, ~16 h, Table 8): 91%
percent inhibition of AR (AR mRNA [2]; 1000.0 nM, ~16 h, Table 8): 98%
IC50 (AR mRNA [2]; ~16 h, Table 8): 60 nM

583969 (k[5mC]*k[5mC]*kT*dT*d[5mC]*dT*dT*d[5mC]*dG*dG*d[5mC]*dT*dG*kT*kG*kA; antisense) [compound 583969]
% inhibition (AR mRNA [1]; Table 21, 500 nM oligonucleotide, electroporation, approximately 24 hours, relative to untreated control): 44%
percent inhibition of AR, 46.9 nM (AR mRNA [2]; [6]): 12%
percent inhibition of AR, 187.5 nM (AR mRNA [2]; [6]): 26%
percent inhibition of AR, 750.0 nM (AR mRNA [2]; [6]): 66%
percent inhibition of AR, 3000.0 nM (AR mRNA [2]; [6]): 86%
IC50 (AR mRNA [2]; [6]): 440 nM

583790 (antisense kG*kT*kT*dG*d[5mC]*dA*dT*dG*dG*dT*dG*d[5mC]*dT*kG*kG*k[5mC]) [compound 583790]
% inhibition (AR mRNA [1]; [8]): 39%
percent inhibition of AR, 46.9 nM (AR mRNA [2]; [7]): 17%
percent inhibition of AR, 187.5 nM (AR mRNA [2]; [7]): 42%
percent inhibition of AR, 750.0 nM (AR mRNA [2]; [7]): 65%
percent inhibition of AR, 3000.0 nM (AR mRNA [2]; [7]): 81%
IC50 (AR mRNA [2]; [7]): 320 nM

583709 (antisense kG*k[5mC]*kT*dT*dG*dG*d[5mC]*dT*dG*dA*dA*dT*d[5mC]*kT*kT*k[5mC]) [compound 583709]
% inhibition (AR mRNA [1]; 500 nM ASO, ~24 h, Table 18): 39%
percent inhibition of AR, 46.9 nM (AR mRNA [2]; [13]): 8%
percent inhibition of AR, 187.5 nM (AR mRNA [2]; [13]): 50%
percent inhibition of AR, 750.0 nM (AR mRNA [2]; [13]): 70%
percent inhibition of AR, 3000.0 nM (AR mRNA [2]; [13]): 84%
IC50 (AR mRNA [2]; [13]): 290 nM

583712 (antisense k[5mC]*k[5mC]*kT*dT*dG*dA*dG*d[5mC]*dT*dT*dG*dG*d[5mC]*kT*kG*kA) [compound 583712]
% inhibition (AR mRNA [1]; 500 nM ASO, ~24 h, Table 18): 37%
percent inhibition of AR, 46.9 nM (AR mRNA [2]; [13]): 15%
percent inhibition of AR, 187.5 nM (AR mRNA [2]; [13]): 47%
percent inhibition of AR, 750.0 nM (AR mRNA [2]; [13]): 72%
percent inhibition of AR, 3000.0 nM (AR mRNA [2]; [13]): 78%
IC50 (AR mRNA [2]; [13]): 290 nM
